Data from paper PMC12040169 (PLOS Biology, 2025).

Assay: in vitro
Details: human, hela cells, % viability

| SMILES | viability at 28.5 h, 10 µM [%] |
| --- | --- |
| O=C1N=C(NC2CCCCCC2)S[C@@H]1CC1CCCCC1 [CBK070723] | 95.8 |
| CCOC(=O)C1CCN(S(=O)(=O)c2ccc(NC(=O)N3CCCC3)cc2)CC1 [CBK269823] | 100 |
| Oc1ccc2cc(-c3cccc(C(F)(F)F)c3)cnc2n1 [CBK081285] | 59.5 |
| CCOC(=O)C1(Cc2ccc(F)cc2F)CCCN(S(=O)(=O)CC)C1 (stereo not shown) [CBK307655] | 92.6 |
| COc1cccc(Oc2cnc(-c3cccc(C(F)(F)F)c3)c(N)n2)c1 [CBK145177] | 94.2 |
| CN1C(=O)c2ccccc2C(=O)[C@@]2(C)CN(CC(C)(C)C)C[C@@H]12 [CBK283481] | 93.8 |
| CCCCSc1nc(N)cc(N2CCC(C(=O)N3CCOCC3)CC2)n1 [CBK306619] | 96.8 |
| O=C(O)c1ccc(S(=O)(=O)NCc2ccccc2)cc1 [CBK262093] | 102 |
| Cc1nc(S(=O)(=O)N2CCC(C(=O)N3CCCCC3)CC2)cn1C [CBK305963] | 89.4 |
| Cn1nccc1C(=O)NC(Cc1ccsc1)c1cccnc1 (stereo not shown) [CBK285394] | 98.6 |
| O=C(O)c1ccc(CNC(=O)c2ccc3c(c2)C(=O)N(CC2CCCO2)C3=O)cc1 (stereo not shown) [CBK264256] | 98.4 |
| CCCCN(C)c1c(CC)nc2ccc(C(=O)NC3=NC(=O)CS3)cn12 [CBK145464] | 102 |
| Clc1cccc(C2N(Cc3ccccc3)CCN2Cc2ccccc2)c1 [CBK261222] | 93.1 |
| CCN(CC)C(=O)C1CCCN(C(=O)c2ccc3c(c2)COC(C2CCN(C(=O)OC(C)(C)C)CC2)O3)C1 (stereo not shown) [CBK173279] | 100 |
| COc1ccc([N+](=O)[O-])cc1NC(=O)C1C2CCC(C2=C(C)C)C1C(=O)O (stereo not shown) [CBK263686] | 93.2 |
| CN1CCN(c2ccc(NS(=O)(=O)c3ccc(Cl)cc3)cc2)CC1 [CBK076932] | 97.9 |
| COc1ccc(CCNC(=O)N2CCC(C(=O)O)CC2)cc1OC [CBK161404] | 110 |
| CN(C)Cc1c(O)ccc2occ(C(O)c3ccccc3)c12 (stereo not shown) [CBK261313] | 104 |
| Cn1c(=O)[nH]c(=O)c2[nH]c(CN3CCN(Cc4ccccc4)CC3)nc21 [CBK269592] | 98.5 |
| Cc1ccc(-c2noc(CNC(=O)CSc3ccccc3)n2)cc1 [CBK270199] | 91.5 |
| CC(C)(C)OC(=O)Nc1ccc(Nc2cc(-c3ccc(F)c(F)c3)ncn2)cc1 [CBK091143] | 90.1 |
| CCCC/C=C/c1cnc(N)c(Nc2ccc3[nH]ccc3c2)n1 [CBK063811] | 95.7 |

| SMILES | viability at 28.5 h, 10 µM [%] |
| --- | --- |
| CN(c1ncccc1C#N)C1CCN(C(=O)OCc2ccccc2)CC1 [CBK023869C] | 84.1 |
| COc1ccc(-c2cncc(NCc3ccncc3)n2)cc1 [CBK065394] | 111 |
| Cc1nc(-c2ccccc2)c(CC(=O)NC2CCCOC2)s1 (stereo not shown) [CBK282586] | 93.4 |
| CCn1cc(S(=O)(=O)NCc2ccc3[nH]c4c(c3c2)CCCC4)cn1 [CBK307225] | 100 |
| O=C(NCc1ccc(Cl)c(Cl)c1)Nc1cccc(C(=O)O)c1 [CBK155461G] | 109 |
| O=C(CCNS(=O)(=O)c1ccccc1)N1CCC(Cc2ccccc2)CC1 [CBK270091] | 84.9 |
| C=C(C)CNC(=O)c1ccc(C)nc1N1CCOCC1 [CBK076389] | 93.5 |
| CCN(CC(=O)NCc1ccc(C)cc1)S(=O)(=O)c1ccc(C)cc1 [CBK267511] | 110 |
| Cc1ccc(C(=O)N2CCN(c3ccc(NC(=O)c4ccc(-c5cccc([N+](=O)[O-])c5)o4)cc3)CC2)cc1 [CBK266355] | 107 |
| Cn1c(CN2CCN(C(=O)Nc3ccccc3)CC2)nc2cc([N+](=O)[O-])ccc21 [CBK268260] | 91.8 |
| COCCN1C(=O)C2(CC(=O)N(CC3CCCCC3)C2=O)c2cc(OC)ccc21 (stereo not shown) [CBK075166] | 90 |
| Cc1c(C(=O)O[C@H]2C[C@@H](c3ccc(F)cc3)N(C)C2=O)cnn1C [CBK283616] | 103 |
| COc1ccc(CSCC(N)C(=O)O)cc1Br (stereo not shown) [CBK264026] | 94 |
| CN(C(=O)c1cccs1)c1ccc(Oc2ncc(C(F)(F)F)cc2Cl)cc1 [CBK161654] | 89.6 |
| c1csc(-c2nccnc2OC2CCCCC2)c1 [CBK107060] | 90.2 |
| CSc1ccc(C(NC(=O)OC(C)(C)C)C(=O)O)cc1 (stereo not shown) [CBK287196] | 80.4 |
| O=C(Nc1ccccc1[N+](=O)[O-])C(c1ccccc1)N1CCOCC1 (stereo not shown) [CBK269390] | 94 |
| Cc1nc2c(C(=O)NCCCN3CCCC3=O)cnn2c(C)c1Cc1cccnc1 [CBK162151] | 108 |
| CCCC(=O)Nc1ccc2c(c1)nc1n2CCN(Cc2ccccc2)C1 [CBK267129] | 105 |
| CCCC1=NNC(=O)C1Cc1c(F)cccc1Cl (stereo not shown) [CBK067753] | 88.8 |
| Cn1c(CCC(=O)Nc2ccc3c(c2)CN(Cc2ccccc2)C3)nc2ccccc21 [CBK285990] | 81.2 |
| FC(F)(F)c1ccnc(OCCN2CCNCC2)c1 [CBK113459] | 97.4 |

| SMILES | viability at 28.5 h, 10 µM [%] |
| --- | --- |
| CC(=O)c1c(C)nn(C(C)CC(=O)Nc2ccc(Cl)c(Cl)c2)c1C (stereo not shown) [CBK270021] | 87.3 |
| O=C1Nc2cc(Cl)ccc2C(=O)N2CCN(C(=O)C3CCCCC3)C[C@H]12 [CBK289586] | 87.1 |
| CC(=O)N1CCc2c(nc(N(C)C)nc2NCCCOC(C)C)C1 [CBK306745] | 84.4 |
| OCC(O)CN1CCCC1 (stereo not shown) [CBK015457] | 114 |
| Cc1cc(=O)oc2cc(Sc3sccc3[N+](=O)[O-])ccc12 [CBK002936] | 90.5 |
| CC(C)(C)OC(=O)N1CCC[C@@H]([C@H](O)c2nccs2)C1 [CBK284283] | 81 |
| CC1CN(c2cc(CO)c(F)cn2)CC2(CCOC2)O1 (stereo not shown) [CBK304772] | 93.8 |
| O=S(=O)(Nc1ccc(C(O)(C(F)(F)F)C(F)(F)F)cc1)c1ccc(-c2ccon2)s1 [CBK062105] | 91.2 |
| N#C/C(=C\c1cn(CCC(N)=O)c2ccccc12)c1nc2ccccc2[nH]1 [CBK267966] | 104 |
| CSc1ccccc1CNC(=O)c1cc(Br)cnc1N(C)S(C)(=O)=O [CBK076529] | 96.7 |
| CC(C)[C@@H](CO)n1c(=O)[nH]c2ncc(-c3cccc(/C=C/C(=O)O)c3)nc21 [CBK065043] | 88.6 |
| CN(Cc1ccccc1N1CCCC1)C(=O)Cc1cn2ccsc2n1 [CBK305897] | 78 |
| Cc1cc(C)nc(Sc2nnc(-c3ccc(C)c(S(=O)(=O)N4CCOCC4)c3)c3ccccc23)n1 [CBK264400] | 105 |
| COc1ccc(S(=O)(=O)Nc2nc3c(s2)C(=O)CC(C)(C)C3)cc1 [CBK095611] | 94.7 |
| CCn1c(CN2CCn3c(nnc3C3CC3)C2)nc2c(F)cccc21 [CBK306300] | 96.6 |
| CCOC(=O)C1=NOC2COC3(CCN(c4ncccn4)CC3)OCC12 (stereo not shown) [CBK018602] | 94.3 |
| Cc1ccc(SC(C)C(=O)Nc2nc[nH]n2)cc1 (stereo not shown) [CBK268638] | 107 |
| Cc1ccc(CNC(=O)c2ccc3c(c2)NC(=O)C(N2CCCC2)S3)cc1 (stereo not shown) [CBK071788] | 84.6 |
| CN1CCN(C(=O)c2ccc(-c3ccccc3)nc2NCCc2ccccn2)CC1 [CBK076550] | 93.3 |
| CCc1c(C(=O)Nc2ccc3nc(C)cn3c2)cnc2cc(O)nn12 [CBK291178] | 92.7 |
| CCNCCNc1ccc([N+](=O)[O-])cc1 [CBK264179C] | 94.1 |
| O=C(Nc1ccc(F)cc1)c1cccc(NS(=O)(=O)c2cc(Br)c(Cl)s2)c1 [CBK050410] | 93.4 |

| SMILES | viability at 28.5 h, 10 µM [%] |
| --- | --- |
| CC(NC(=O)CCn1c(C(F)F)cc2cccnc21)c1ccncc1 (stereo not shown) [CBK285069] | 91.6 |
| COc1ccc(S(=O)(=O)N(CC(=O)O)c2ccc(Cl)cc2)cc1OC [CBK267836] | 97.5 |
| COc1ncc(-c2nccnc2OCc2ccccc2)c(OC)n1 [CBK106748] | 108 |
| Cc1ccc(S(=O)(=O)c2ccccc2)cc1S(=O)(=O)NCc1ccncc1 [CBK270073] | 98.4 |
| CCOc1ccc(/N=C2/SC(C(=O)O)CC(=O)N2Cc2ccc3c(c2)OCO3)cc1 (stereo not shown) [CBK263296] | 93.3 |
| O=C(O)CCSc1c[nH]c2ccccc12 [CBK262319] | 94.5 |
| COc1ccc(CCNC(=O)CN2CCCC2Cn2cncn2)cc1 (stereo not shown) [CBK304567] | 115 |
| OC1(C2CNc3ccccc3C2)CCNCC1 (stereo not shown) [CBK283847] | 110 |
| COc1ccc(OC(=O)N2CCC3(CC2)CC(=O)N(Cc2ccc(S(C)(=O)=O)cc2)C3=O)cc1 [CBK155952] | 99.3 |
| CCN(CC)CCNc1ncnc(N)c1[N+](=O)[O-] [CBK267287] | 82.8 |
| O=C(CSc1nnc(SCc2cccc3ccccc23)s1)Nc1ccccc1C(F)(F)F [CBK267575] | 103 |
| Cc1ccc(F)c(NS(=O)(=O)Cc2ccccc2)c1 [CBK038438] | 111 |
| CC1CCCN(Cc2ccccc2[N+](=O)[O-])C1 (stereo not shown) [CBK261862] | 102 |
| CCN(CC)C(=O)[C@@H](C)C1CC[C@@]2(C)CC[C@H](NC(=O)C3CC3)[C@@H](C)[C@@H]2[C@H]1O (stereo partly shown) [CBK289443] | 97.5 |
| Cc1nc(C2CCCCN2C(=O)COc2ccccc2)ncc1C(=O)Nc1ccc(F)cc1 (stereo not shown) [CBK285871] | 98.6 |
| COc1ccc(NC(=O)c2ccc(-c3nnn[nH]3)cc2)cc1OC [CBK295138] | 97.7 |
| N/N=C(\CCC(=O)O)c1ccccc1 [CBK261306] | 98.3 |
| Cc1cc(C(=O)Nc2ccc(S(=O)(=O)N3CC(C)OC(C)C3)cc2)c2ccccc2n1 (stereo not shown) [CBK295170] | 87.4 |
| CN1Cc2ccccc2-c2ccc(O)cc21 [CBK017804] | 97.2 |
| COC(=O)NCCc1c[nH]c2ccc(OC)cc12 [CBK084597] | 98 |
| Cc1ccc2ccc(S(=O)(=O)NCc3cccnc3)cc2c1 [CBK262072] | 98.8 |
| CCOc1ccsc1C(=O)Nc1c(OC)cc(F)cc1OC1CCNCC1 [CBK050292T] | 94.3 |
